{"source": "patent US9353075B2", "about": "“Disubstituted beta-lactones as inhibitors of N-acylethanolamine acid amidase (NAAA)” (The Regents of the University of California, priority 2011, dated 2016)", "key": {"[1]": {"test_system": "IL-4, IL-5, IFN-g, and IgE blood levels", "assay": "Immune response in DNFB-induced dermatitis", "format": "in vivo, mouse", "settings": "mice, topical", "description": "The methods include the following. Dermatitis in mice was induced with 2-4 Dinitrofluorobenzene (DNFB) as previously described. IL-4, IL-5, IFN-g, and IgE blood levels were determined by immunoassays. The effect of compound 6 was tested using a single treatment protocol."}, "[2]": {"test_system": "skin integrity (ear thickness, histopathology)", "settings": "in vivo", "description": "The methods included the following. Drug or vehicle were given topical to both ears of CD1 mice for 14 days. Ear thickness was determined by using a micrometer. Histopathological analyses were conducted on formalin-fixed, paraffin-embedded ear sections […] thick and stained with Hematoxylin-Eosin. Epidermal thickness was measured with standard morphometric methods from 12 different samplings spanning the treated area of each ear. Data were analysed by ANOVA followed by Bonferroni's test for multiple comparisons."}, "r-NAAA": {"target": "r-NAAA (Rattus norvegicus (Rat), UniProt Q5KTC7)", "sequence (Q5KTC7 34-362)": "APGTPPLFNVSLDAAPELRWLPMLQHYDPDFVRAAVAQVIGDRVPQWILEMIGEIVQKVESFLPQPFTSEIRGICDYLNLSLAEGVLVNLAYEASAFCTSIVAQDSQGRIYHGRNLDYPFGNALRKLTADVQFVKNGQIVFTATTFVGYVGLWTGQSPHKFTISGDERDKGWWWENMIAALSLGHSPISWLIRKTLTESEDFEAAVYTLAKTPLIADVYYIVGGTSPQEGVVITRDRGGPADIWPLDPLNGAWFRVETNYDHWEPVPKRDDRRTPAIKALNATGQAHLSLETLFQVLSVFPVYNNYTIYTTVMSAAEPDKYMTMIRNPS", "assay": "r-NAAA inhibition, rat lung lysosomal NAAA preparation, UPLC/MS", "format": "biochemical", "in_short": "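Substrate was 50 μM heptadecenoylethanolamide, incubated 30 min at 37 °C after a 30 min compound preincubation at pH 4.5 with 1% Triton-X and 3 mM DTT. The enzyme source was rat lung lysosomal preparation. IC50 came from curve fitting of reduced heptadecenoic acid product, measured by negative-mode UPLC/MS versus vehicle.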"}, "DNFB-induced dermatitis": {"test_system": "DNFB-induced dermatitis", "assay": "DNFB contact dermatitis in mice, ear thickness", "format": "in vivo, mouse", "description": "2,4-dinitrofluorobenzene (DNFB) (Sigma-Aldrich, Italy) was dissolved in acetone. On day 1 and 2, mice (CD1, 25-30 g, Charles River, Calco, Italy) were sensitized on the skin of the abdomen with hapten (20 μL of 0.5% DNFB). After 5 days, on day 7, mice were challenged with hapten (20 μL of 0.2% DNFB) in the earlobe and treated with drugs to be tested. Control group received the vehicle used to dissolve drugs. Mice (five per group) were placed in a plastic cage. On day 8, ear thickness was determined after challenge using a caliper. Results are expressed as absolute ear thickness.\nFresh drug suspensions of compound 6 were prepared immediately before use in a vehicle consisting of petrolatum plus 5% lauric acid and given in a volume of 20 μL/mouse. Mice were treated with different concentrations of compound 6 or vehicle together with DNFB challenge on […].\nCompound 6 and the reported β-lactone NAAA inhibitor (S)-OOPP (Solorzano et al., Proceedings of the National Academy of Science USA 2009, 106, 20966-20971; Solorzano et al., Journal of Medicinal Chemistry 2010, 53, 5770-5781) were tested in this model for their contact sensitivity response. Fresh drug solutions of (S)-OOPP and compound 6 were prepared immediately before use in polyethylene glycol 400 (PEG 400) and given in a volume of 20 μL/ear. Mice were treated with different concentrations of (S)-OOPP, 0.1% compound 6 or vehicle each day for 7 days. Ear thickness was determined on day 0 and every day before challenge using a caliper. Results are expressed as absolute ear thickness.\n(§1) The methods included the following. Dermatitis was produced in mice using 2-4 dinitrofluorobenzene (DNFB) as described by Buckley and Nijkamp (1994), Am J Respir Grit Care Med 149:400-7. Mice were sensitized on two consecutive days with a 0.5% DNFB solution applied to the shaved abdomen. At day 8, the ears were challenged with a 0.2% DNFB solution. Ear thickness was determined by using a micrometer. Scratching was evaluated as number of episodes per 60 minutes period. Data were analysed by ANOVA followed by the Bonferroni's test. See also Hargreaves K, et al (1988), Pain 32: 77-88 for related information."}, "DNFB-induced scratching": {"test_system": "DNFB-induced scratching", "assay": "DNFB-induced scratching in mice", "format": "in vivo, mouse", "settings": "topical, single dose", "description": "as §1\nThe methods include the following. Itching in mice was induced with DNFB as previously described. Additional studies were done with 48/80 model (an inducer of mast cell degranulation). 48/80 was given subcutaneously (30 mg per kg). Data were analysed by ANOVA followed by Bonferroni's test for multiple comparisons."}, "[3]": {"test_system": "48/80-induced scratching (mast cell degranulation)", "assay": "Compound 48/80-induced scratching in mice", "format": "in vivo, mouse", "settings": "topical, single dose", "description": "The methods include the following. Itching in mice was induced with DNFB as previously described. Additional studies were done with 48/80 model (an inducer of mast cell degranulation). 48/80 was given subcutaneously (30 mg per kg)."}, "[4]": {"settings": "established DNFB-induced ear edema"}, "[5]": {"settings": "repeated dosing, 8 days before DNFB challenge"}}, "note": "Entries after “also recorded” stand apart in the source; their conditions may differ. Like-named read-outs stand apart in the source and are kept apart here."}
{"smiles": "C[C@@H]1OC(=O)[C@@H]1NC(=O)OCCCCCc1ccccc1", "note": "[Example 6, 5-phenylpentyl-[(2S,3R)-2-methyl-4-oxooxetan-3-yl]-carbamate]", "values": [{"measurement": "Dose range of full efficacy on immune response, single administration", "setting": "[1]", "result": "1 to 30", "unit": "%"}, {"measurement": "Effect on immune response compared with steroids", "setting": "[1]", "result": "superior to that of steroids"}, {"measurement": "Immunological responses in DNFB dermatitis", "setting": "[1]", "result": "normalizes compromised immunological responses"}, {"measurement": "DNFB-induced IFN-γ decrease", "setting": "[1]; single dosing", "result": "reverses DNFB-induced IFN-γ decrease"}, {"measurement": "DNFB-induced IL-4 increase", "setting": "[1]; single dosing", "result": "reverses DNFB-induced IL-4 increase"}, {"measurement": "DNFB-induced IL-5 increase", "setting": "[1]; single dosing", "result": "reverses DNFB-induced IL-5 increase"}, {"measurement": "DNFB-induced IgE increase", "setting": "[1]; single dosing", "result": "reverses DNFB-induced IgE increase"}, {"measurement": "Cellular architecture, histopathological and morphometric analysis", "setting": "[2]; CD1, mouse, 14 days", "result": "but not compound 6, altered cellular architecture"}, {"measurement": "Skin atrophy (decrease of ear thickness)", "setting": "[2]; CD1, mouse, 14 days", "result": "but not compound 6, causes skin atrophy"}, {"measurement": "Cellular architecture, histopathological and morphometric analysis", "setting": "[2]; mouse", "result": "no alterations of cellular structure"}, {"measurement": "Skin atrophy (decrease of ear thickness)", "setting": "[2]; mouse", "result": "did not affect skin integrity"}, {"measurement": "IC50", "setting": "r-NAAA", "result": 50, "unit": "nM"}, {"measurement": "Doses of full efficacy, single dosing protocol", "setting": "DNFB-induced dermatitis; [4]", "result": "10-30%"}, {"measurement": "Effective dose-range, repeated dosing protocol", "setting": "DNFB-induced dermatitis; [4]", "result": "0.01-1%"}, {"measurement": "Time of administration to full efficacy, repeated dosing", "setting": "DNFB-induced dermatitis; [4]", "result": 3, "unit": "days"}, {"measurement": "Ear swelling 24 h after DNFB challenge", "setting": "DNFB-induced dermatitis; mice, 1-30% w/w suspension in petrolatum plus 5% lauric acid", "result": "dose-dependently inhibited ear swelling"}, {"measurement": "Contact sensitivity response (ear swelling)", "setting": "DNFB-induced dermatitis; mice, PEG 400 solution, each day for 7 days, (S)-OOPP 0.1-10% w/v, compound 6 0.1%", "result": "significant decrease in ear swelling"}, {"measurement": "Established DNFB-induced ear edema (therapeutic effect), repeated dosing", "setting": "DNFB-induced dermatitis; mice, topical, repeated dosing", "result": "reverses ear thickness increase; also recorded: reverses established DNFB-induced ear edema"}, {"measurement": "Established DNFB-induced ear thickness increase, single dosing", "setting": "DNFB-induced dermatitis; mice, topical, single administration", "result": "reverses ear thickness increase; also recorded: efficacy is also noted"}, {"measurement": "Doses of complete efficacy, prophylactic protocol", "setting": "DNFB-induced dermatitis; [5]", "result": "0.1-1%"}, {"measurement": "Prevention of DNFB-induced ear edema (prophylactic effect)", "setting": "DNFB-induced dermatitis; [5]", "result": "prevents the development of DNFB-induced symptoms; also recorded: prevents DNFB-induced increased ear edema"}, {"measurement": "DNFB-induced scratching", "setting": "DNFB-induced scratching", "result": "prevents DNFB-induced scratching; also recorded: prevented itching"}, {"measurement": "Dose of full effect, DNFB-induced scratching", "setting": "DNFB-induced scratching", "result": "1-3%"}, {"measurement": "Lowest effective dose, DNFB-induced scratching", "setting": "DNFB-induced scratching", "result": 0.001, "unit": "%"}, {"measurement": "Dose of maximal effect, 48/80-induced scratching", "setting": "[3]", "result": 1, "unit": "%"}, {"measurement": "Lowest effective dose, 48/80-induced scratching", "setting": "[3]", "result": 0.01, "unit": "%"}, {"measurement": "48/80-induced scratching", "setting": "[3]; 48/80 30 mg per kg s.c.", "result": "prevents 48/80-induced scratching"}]}
